1 compound from patent US6410554B1, “Combination therapy for the treatment of benign prostatic hyperplasia” (Merck & Co., Inc., priority 1998, dated 2002) can be followed below.

Counter-ions that a name gives are not always drawn.

Usually melting point stands for the temperature, or range, at which the solid turns liquid. Compound `C[C@@H]1OC(=O)N(C(=O)NCCCN2CCC(c3ccc(F)cc3)CC2)[C@H]1c1ccc(F)c(F)c1` (as salt: hydrochloride) registered a melting point of 80 to 83 °C.
